Series [1] concerns Rattus norvegicus. The series can be described thus: Antiinflammatory activity in rat assessed as inhibition of carrageenin-induced foot edema at 33 mg/kg, po. More on the design: dose 33 mg/kg. The format is functional, organism-based.
Series [2] in a line: Ionization constant, pKa of the compound. The format is physicochemical.
In series [3] the test system is Rattus norvegicus. Description: Antiinflammatory activity in rat assessed as inhibition of carrageenin-induced foot edema at 100 mg/kg, po. The format is functional. For orientation: In the carrageenan paw model, swelling and tenderness develop within hours.

Active and inactive are the calls of the source. No cut-off for these calls is given here.

Among the data in ChEMBL document CHEMBL3271982, “Synthesis and antiinflammatory properties of N-substituted 4,5-dioxopyrrolidine-3-carboxanilides” (J Med Chem, 1976) are inhibition, pKa and inhibition in vivo values, retold here.

For `CN1CC(C(=O)Nc2ccc(F)cc2)C(=O)C1=O` (stereo unspecified), the inhibition result in series [1] is “Active”. In series [2], this compound registered a pKa of 5.55.
The matching figures for `O=C(Nc1ccccc1C(F)(F)F)C1CN(c2ccccc2)C(=O)C1=O` (stereo unspecified): “Active” and 5.87.
For `O=C(Nc1ccccc1Cl)C1CN(c2ccccc2)C(=O)C1=O` (stereo unspecified), the inhibition result in series [1] is “Active”.
On the same count and under the same terms, the same measure for `CN1CC(C(=O)Nc2ccc(C(F)(F)F)cc2)C(=O)C1=O` (stereo unspecified): “Active”.
As for `Cc1ccc(NC(=O)C2CN(C)C(=O)C2=O)cc1` (stereo unspecified), the inhibition entry in series [1] is “Active”. In series [2], this compound registered a pKa of 5.79.
`CN1CC(C(=O)Nc2ccc(Cl)cc2)C(=O)C1=O` (stereo unspecified): the inhibition result in series [1] was “Active”. In series [2], this compound registered a pKa of 5.51.
`O=C(Nc1ccccc1)C1CN(c2ccccc2)C(=O)C1=O` (stereo unspecified): the inhibition result in series [1] was “Active”. The compound also showed a pKa in series [2] of 5.58.
Regarding `COc1ccc(NC(=O)C2CN(c3ccccc3)C(=O)C2=O)cc1` (stereo unspecified), in series [1], the inhibition result is “Active”.
Turning to `O=C(Nc1ccc(C(F)(F)F)cc1)C1CN(c2ccccc2)C(=O)C1=O` (stereo unspecified), in series [1], the inhibition entry was “Active”.
Take `COc1ccc(NC(=O)C2CN(C)C(=O)C2=O)cc1` (stereo unspecified): the inhibition entry in series [1] is “Active”. Besides, the pKa in series [2] turned out to be 5.84.
As for `O=C(Nc1ccc(Cl)cc1)C1CN(c2ccccc2)C(=O)C1=O` (stereo unspecified), the inhibition result in series [1] is “Active”.
With `CCOC(=O)c1ccccc1NC(=O)C1CN(C)C(=O)C1=O` (stereo unspecified), the inhibition entry in series [1] was “Active”. The same compound registered a pKa in series [2] of 6.49.
Consider `CC(=O)Oc1ccccc1C(=O)O` [ASPIRIN], for which the inhibition in vivo at 100 mg/kg in series [3] came to 50%.
`CN1CC(C(=O)Nc2ccccc2)C(=O)C1=O` (stereo unspecified): the inhibition entry in series [1] was “Active”. Further, the pKa in series [2] was determined as 5.86.
The matching figures for `COc1ccccc1NC(=O)C1CN(c2ccccc2)C(=O)C1=O` (stereo unspecified): “Active” and 6.19.
Regarding `COc1ccccc1NC(=O)C1CN(C)C(=O)C1=O` (stereo unspecified), the inhibition entry in series [1] was “Active”. This compound yielded a pKa in series [2] of 6.08.

As usually defined, the pKa is the pH at which an ionisable group is half protonated. As usually defined, the inhibition in vivo is the share of the control response that was lost under treatment.
